The target in this assay is human F508del-CFTR (Homo sapiens, UniProt P13569, DEL508-508). Briefly: F508del-CFTR cell surface expression (corrector activity), DiscoveRx ß-galactosidase complementation chemiluminescence assay in recombinant U2OS cell line.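 For all read-outs here: U2OS cells co-expressing ProLink-tagged F508del-CFTR and a membrane-anchored enzyme acceptor, where more surface CFTR restores β-galactosidase activity measured by chemiluminescence.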 The following applies: for EC50: EC50, F508del-CFTR cell surface expression, U2OS cells, 16h compound incubation, geomean values; for Emax: U2OS, in relation to Emax of corrector lumacaftor (=100%), arithmetic mean values.
Chain of human F508del-CFTR (P13569 with tags, fused parts or gaps DEL508-508): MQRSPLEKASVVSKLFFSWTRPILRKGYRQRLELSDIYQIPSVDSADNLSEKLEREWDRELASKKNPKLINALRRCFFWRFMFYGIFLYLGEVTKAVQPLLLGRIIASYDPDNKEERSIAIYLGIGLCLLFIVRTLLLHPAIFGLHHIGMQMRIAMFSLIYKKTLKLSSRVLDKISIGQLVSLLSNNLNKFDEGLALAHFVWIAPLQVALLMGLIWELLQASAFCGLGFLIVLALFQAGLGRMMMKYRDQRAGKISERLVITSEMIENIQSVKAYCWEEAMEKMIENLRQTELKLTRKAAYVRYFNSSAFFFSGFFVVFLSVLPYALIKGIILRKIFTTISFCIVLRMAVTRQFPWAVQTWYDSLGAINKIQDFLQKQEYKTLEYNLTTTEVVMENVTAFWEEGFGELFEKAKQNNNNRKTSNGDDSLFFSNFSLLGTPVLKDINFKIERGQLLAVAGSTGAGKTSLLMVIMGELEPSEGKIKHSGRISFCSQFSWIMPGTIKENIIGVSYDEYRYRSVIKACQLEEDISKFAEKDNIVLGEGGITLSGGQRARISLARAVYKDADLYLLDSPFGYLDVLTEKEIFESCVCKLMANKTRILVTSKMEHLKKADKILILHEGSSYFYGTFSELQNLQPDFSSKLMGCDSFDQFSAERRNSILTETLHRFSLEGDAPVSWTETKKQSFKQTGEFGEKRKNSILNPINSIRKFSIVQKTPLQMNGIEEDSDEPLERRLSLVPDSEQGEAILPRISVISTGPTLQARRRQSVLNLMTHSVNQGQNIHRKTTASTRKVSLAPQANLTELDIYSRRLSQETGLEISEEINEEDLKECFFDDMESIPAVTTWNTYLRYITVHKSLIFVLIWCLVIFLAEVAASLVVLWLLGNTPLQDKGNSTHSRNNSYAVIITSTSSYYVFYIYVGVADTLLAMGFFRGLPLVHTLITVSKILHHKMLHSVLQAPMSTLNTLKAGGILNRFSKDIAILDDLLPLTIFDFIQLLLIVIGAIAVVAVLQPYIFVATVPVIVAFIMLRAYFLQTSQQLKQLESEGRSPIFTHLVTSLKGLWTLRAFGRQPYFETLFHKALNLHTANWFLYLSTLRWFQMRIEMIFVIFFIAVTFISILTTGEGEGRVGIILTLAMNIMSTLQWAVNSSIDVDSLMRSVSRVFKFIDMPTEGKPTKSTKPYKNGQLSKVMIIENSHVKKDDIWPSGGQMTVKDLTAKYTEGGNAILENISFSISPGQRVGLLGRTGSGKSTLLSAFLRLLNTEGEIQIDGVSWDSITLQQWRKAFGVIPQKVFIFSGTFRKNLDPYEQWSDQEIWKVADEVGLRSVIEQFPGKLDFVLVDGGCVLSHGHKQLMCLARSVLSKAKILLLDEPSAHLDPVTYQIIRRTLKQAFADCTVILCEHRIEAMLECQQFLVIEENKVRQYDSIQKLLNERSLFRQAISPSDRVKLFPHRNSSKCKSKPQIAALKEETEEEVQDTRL

A word on the EC50: it is the concentration at which the effect is half-maximal. One may read the Emax as the size of the effect at its maximum, as opposed to the concentration needed. For the compound `CC(C)C[C@H]1C(=O)N(C)C2(CCC2)C(=O)N[C@H](Cc2ccccc2)COc2cnc3ccc(F)cc3c2C(=O)N[C@H](C(=O)NCCc2cc(C3CC3)no2)CC(=O)N1C` [Example 689, (3'S,7'S,13′R)-13′-Benzyl-N-(2-(3-cyclopropylisoxazol-5-yl)ethyl)-20′-fluoro-7′-isobutyl-6′,9′-dimethyl-1′,5′,8′,11′-tetraoxo-2′,3′,4′,5′,6′,7′,8′,9′,11′,12′,13′,14′-dodecahydro-1′H-spiro[cyclobutane-1,10′-[1]oxa[4,7,10,14]tetraazacycloheptadecino[17,16-c]quinoline]-3′-carboxamide], the EC50 is 245 nM and the maximal effect (Emax) amounted to 390%.
For `Cc1cc(CCNC(=O)[C@@H]2CC(=O)N(C)[C@@H](CC(C)C)C(=O)N(C)C3(CCC3)C(=O)N[C@H](Cc3ccccc3)COc3cnc4ccc(F)cc4c3C(=O)N2)on1` [Example 690, (3′S,7′S,13′R)-13′-benzyl-20′-fluoro-7′-isobutyl-6′,9′-dimethyl-N-(2-(3-methylisoxazol-5-yl)ethyl)-1′,5′,8′,11′-tetraoxo-2′,3′,4′,5′,6′,7′,8′,9′,11′,12′,13′,14′-dodecahydro-1′H-spiro[cyclobutane-1,10′-[1]oxa[4,7,10,14]tetraazacycloheptadecino[17,16-c]quinoline]-3′-carboxamide] the same measures were 478 nM and 401%.
The like results for `CC(C)C[C@H]1C(=O)N(C)C2(CCC2)C(=O)N[C@H](Cc2ccccc2)COc2cnc3ccc(F)cc3c2C(=O)N[C@H](C(=O)NCCc2noc(C3CC3)n2)CC(=O)N1C` [Example 691, (3′S,7′S,13′R)-13′-benzyl-N-(2-(5-cyclopropyl-1,2,4-oxadiazol-3-yl)ethyl)-20′-fluoro-7′-isobutyl-6′,9′-dimethyl-1′,5′,8′,11′-tetraoxo-2′,3′,4′,5′,6′,7′,8′,9′,11′,12′,13′,14′-dodecahydro-1′H-spiro[cyclobutane-1,10′-[1]oxa[4,7,10,14]tetraazacycloheptadecino[17,16-c]quinoline]-3′-carboxamide] were, in that order, 201 nM and 364%.
As to `CC(C)C[C@H]1C(=O)N(C)C2(CCC2)C(=O)N[C@H](Cc2ccccc2)COc2cnc3ccc(F)cc3c2C(=O)N[C@H](C(=O)NCCc2nc(C3CC3)no2)CC(=O)N1C` [Example 692, (3′S,7′S,13′R)-13′-benzyl-N-(2-(3-cyclopropyl-1,2,4-oxadiazol-5-yl)ethyl)-20′-fluoro-7′-isobutyl-6′,9′-dimethyl-1′,5′,8′,11′-tetraoxo-2′,3′,4′,5′,6′,7′,8′,9′,11′,12′,13′,14′-dodecahydro-1′H-spiro[cyclobutane-1,10′-[1]oxa[4,7,10,14]tetraazacycloheptadecino[17,16-c]quinoline]-3′-carboxamide], the 50% effective concentration (EC50) worked out at 104 nM and the Emax came out at 301%.
In the case of `CC(C)C[C@H]1C(=O)N(C)[C@H](CC2CCCC2)C(=O)N[C@H](Cc2ccccc2)COc2cnc3ccc(F)cc3c2C(=O)N[C@H](C(=O)NCCc2noc(C3CC3)n2)CC(=O)N1C` [Example 693, (3S,7S,10R,13R)-13-benzyl-10-(cyclopentylmethyl)-N-(2-(5-cyclopropyl-1,2,4-oxadiazol-3-yl)ethyl)-20-fluoro-7-isobutyl-6,9-dimethyl-1,5,8,11-tetraoxo-1,2,3,4,5,6,7,8,9,10,11,12,13,14-tetradecahydro-[1]oxa[4,7,10,14]tetraazacycloheptadecino[17,16-c]quinoline-3-carboxamide], the EC50 came to 40 nM and the maximum response (Emax) turned out to be 401%.
For `CC(C)C[C@H]1C(=O)N(C)[C@@H](CC2CCCC2)C(=O)N[C@H](Cc2ccccc2)COc2cnc3ccc(F)cc3c2C(=O)N[C@H](C(=O)NCCc2noc(C3CC3)n2)CC(=O)N1C` [Example 694, (3S,7S,10S,13R)-13-benzyl-10-(cyclopentylmethyl)-N-(2-(5-cyclopropyl-1,2,4-oxadiazol-3-yl)ethyl)-20-fluoro-7-isobutyl-6,9-dimethyl-1,5,8,11-tetraoxo-1,2,3,4,5,6,7,8,9,10,11,12,13,14-tetradecahydro-[1]oxa[4,7,10,14]tetraazacycloheptadecino[17,16-c]quinoline-3-carboxamide], the EC50 came to 241 nM and the maximum response (Emax) came out at 213%.
For `Cc1cc(CCNC(=O)[C@@H]2CC(=O)N(C)[C@@H](CC(C)C)C(=O)N(C)[C@@H](Cc3cccc4ccccc34)C(=O)N[C@H](Cc3ccccc3)COc3cnc4ccccc4c3C(=O)N2)on1` [Example 695, (3S,7S,10S,13R)-13-benzyl-7-isobutyl-6,9-dimethyl-N-(2-(3-methylisoxazol-5-yl)ethyl)-10-(naphthalen-1-ylmethyl)-1,5,8,11-tetraoxo-1,2,3,4,5,6,7,8,9,10,11,12,13,14-tetradecahydro-[1]oxa[4,7,10,14]tetraazacycloheptadecino[17,16-c]quinoline-3-carboxamide] the same measures were 201 nM and 237%.
For `CC(C)C[C@H]1C(=O)N(C)[C@H](CC2CCCCC2)C(=O)N[C@H](Cc2ccccc2)COc2cnc3ccc(F)cc3c2C(=O)N[C@H](C(=O)NCCc2nc(C3CC3)no2)CC(=O)N1C` [Example 696, (3S,7S,10R,13R)-13-benzyl-10-(cyclohexylmethyl)-N-(2-(3-cyclopropyl-1,2,4-oxadiazol-5-yl)ethyl)-20-fluoro-7-isobutyl-6,9-dimethyl-1,5,8,11-tetraoxo-1,2,3,4,5,6,7,8,9,10,11,12,13,14-tetradecahydro-[1]oxa[4,7,10,14]tetraazacycloheptadecino[17,16-c]quinoline-3-carboxamide], the concentration giving a half-maximal response (EC50) was determined as 14 nM and the Emax was determined as 252%.
For `CC(C)C[C@H]1C(=O)N(C)[C@H](CC2CCCCC2)C(=O)N[C@H](Cc2ccccc2)COc2cnc3ccc(F)cc3c2C(=O)N[C@H](C(=O)NCCc2cc(C3CC3)no2)CC(=O)N1C` [Example 697, (3S,7S,10R,13R)-13-benzyl-10-(cyclohexylmethyl)-N-(2-(3-cyclopropylisoxazol-5-yl)ethyl)-20-fluoro-7-isobutyl-6,9-dimethyl-1,5,8,11-tetraoxo-1,2,3,4,5,6,7,8,9,10,11,12,13,14-tetradecahydro-[1]oxa[4,7,10,14]tetraazacycloheptadecino[17,16-c]quinoline-3-carboxamide] the same measures were 27 nM and 306%.
Regarding `Cc1cc(CCNC(=O)[C@@H]2CC(=O)N(C)[C@@H](CC(C)C)C(=O)N(C)[C@H](Cc3cccc4ccccc34)C(=O)N[C@H](Cc3ccccc3)COc3cnc4ccccc4c3C(=O)N2)on1` [Example 698, (3S,7S,10R,13R)-13-benzyl-7-isobutyl-6,9-dimethyl-N-(2-(3-methylisoxazol-5-yl)ethyl)-10-(naphthalen-1-ylmethyl)-1,5,8,11-tetraoxo-1,2,3,4,5,6,7,8,9,10,11,12,13,14-tetradecahydro-[1]oxa[4,7,10,14]tetraazacycloheptadecino[17,16-c]quinoline-3-carboxamide], the EC50 was determined as 199 nM and the Emax came to 313%.

For the origin of these results see patent US20240208992A1, “MACROCYCLES AS CFTR MODULATORS” (Idorsia Pharmaceuticals Ltd, priority 2021, published 2024).
